Test results taken from article PMC11901911, “Diverse Structures of Tea Polyphenols from Rougui Wuyi Rock Tea and Their Potential as Inhibitor of 3C-like Protease” (Molecules, 2025).
Where two headings read alike, the source gives them in different places.

What was measured:
[1] = target: T1, SARS-CoV-2 3CLpro (Severe acute respiratory syndrome coronavirus 2, UniProt P0DTD1); test: biochemical; settings: for IC50: FRET assay, serial dilution, read-out: IC50 against SARS-CoV-2 3CLpro; for inhibition at 100 µM: compound concentration 100 μM; for inhibition at 100 µM / inhibition at 10 µM: read-out: Inhibition rate (%) against 3CLpro; for inhibition at 10 µM: compound concentration 10 μM
T1 construct: The kit contains assay buffer (125 mL, blank control), 2019-nCoV-2 3CLpro (500 μL), substrate (1 mL); purchased Beyotime Biotechnology (Shanghai, China) P0312M

[2] = target: T1, SARS-CoV-2 3CLpro; set-up: method as in PMID 32963564; settings: in vitro; read-out: IC50 on SARS-CoV-2 3CLpro protein activity; cited from earlier work

SMILES	IC50 [1]	inhibition at 100 µM [1]	inhibition at 10 µM [1]	IC50 [2]
C[C@@H]1O[C@@H](OC[C@H]2O[C@@H](Oc3c(-c4ccc(O)cc4)oc4cc(O)cc(O)c4c3=O)[C@H](OC(=O)/C=C\c3ccc(O)cc3)[C@@H](O)[C@H]2O)[C@H](O)[C@H](O[C@@H]2O[C@H](CO)[C@@H](O)[C@H](O)[C@H]2O)[C@H]1O [Compound 32, Kaempferol-3-O-[2″-O-(Z)-p-coumaroyl] [β-D-glucopyranosyl-(1→3)-O-α-L-rhamnopyranosyl-(1→6)]-β-D-galactopyranoside]	61.1 µM	> 50%	–	–
O=C(O[C@@H]1Cc2c(O)cc(O)cc2O[C@@H]1c1cc(O)c(O)c(O)c1)c1cc(O)c(O)c(O)c1 [Compound 5, (−)-epigallocatechin-3-O-gallate]	–	–	> 50%	–
O=C(O[C@@H]1Cc2c(O)cc(O)cc2O[C@@H]1c1ccc(O)cc1)c1cc(O)c(O)c(O)c1 [Compound 7, (−)-epiafzelechin-3-O-gallate]	–	> 50%	–	–
COc1cc(C(=O)O[C@@H]2Cc3c(O)cc(O)cc3O[C@@H]2c2cc(O)c(O)c(O)c2)cc(O)c1O [Compound 6, (−)-epigallocatechin-3-(3′-O-methyl)-gallate]	9.8 ± 0.4 µM	–	> 50%	–
O=c1c(O)cc([C@H]2Oc3cc(O)cc(O)c3C[C@H]2O)cc2c([C@H]3Oc4cc(O)cc(O)c4C[C@H]3O)cc(O)c(O)c12 [theaflavin]	–	–	–	15 µM
COc1cc(C(=O)O[C@@H]2Cc3c(O)cc(O)cc3O[C@@H]2c2cc(O)c(O)c(O)c2-c2c([C@H]3Oc4cc(O)cc(O)c4C[C@H]3O)cc(O)c(O)c2O)cc(O)c1O [Compound 20, Epigallocatechin-(2′→2′)-epigallocatechin-3-(3″-O-methyl)-gallate]	42.1 µM	> 50%	–	–
CCN1C(=O)CC[C@@H]1c1c(O)cc(O)c2c1O[C@H](c1cc(O)c(O)c(O)c1)[C@H](O)C2 [Compound 15, puerin VI]	14.5 ± 1.1 µM	> 50%	–	–
O=C(O[C@@H]1Cc2c(O)cc(O)cc2O[C@@H]1c1cc(O)c(O)c(O)c1-c1c([C@H]2Oc3cc(O)cc(O)c3C[C@H]2OC(=O)c2cc(O)c(O)c(O)c2)cc(O)c(O)c1O)c1cc(O)c(O)c(O)c1 [Compound 21, theasinensin A]	–	> 50%	–	–
CCN1C(=O)CC[C@@H]1c1c(O)cc2c(c1O)C[C@@H](O)[C@@H](c1cc(O)c(O)c(O)c1)O2 [Compound 11, 6-(5″R)-N-ethyl-2-pyrrolidinone-epigallocatechin]	22.4 ± 5.8 µM	> 50%	–	–
CCN1C(=O)CC[C@H]1c1c(O)cc(O)c2c1O[C@H](c1cc(O)c(O)c(O)c1)[C@H](O)C2 [Compound 14, puerin V]	14.9 ± 1.4 µM	> 50%	–	–
CCN1C(=O)CC[C@H]1c1c(O)cc2c(c1O)C[C@@H](O)[C@@H](c1cc(O)c(O)c(O)c1)O2 [Compound 12, 6-(5″S)-N-ethyl-2-pyrrolidinone-epigallocatechin]	26.8 ± 0.9 µM	> 50%	–	–
Oc1cc(O)c2c(c1)O[C@H](c1ccc(O)c(O)c1)[C@H](O)C2 [Compound 1, (−)-epicatechin]	–	> 50%	–	–
O=C(O[C@H]1Cc2c(O)cc(O)cc2O[C@@H]1c1cc(O)c(O)c(O)c1)c1cc(O)c(O)c(O)c1 [Compound 9, (−)-gallocatechin-3-O-gallate]	–	–	> 50%	–
Oc1cc(O)c2c(c1)O[C@H](c1cc(O)c(O)c(O)c1)[C@H](O)C2 [Compound 4, (−)-epigallocatechin]	12 ± 1.9 µM	–	> 50%	–
